In patent publication US6074859A, “Mutant-type bioluminescent protein, and process for producing the mutant-type bioluminescent protein” (Kikkoman Corporation, priority 1998, dated 2000):

Assays:
[1] = biological target: Photinus pyralis luciferase, wild type (Photinus pyralis, UniProt P08659); assay: Km for substrate ATP, peak light emission (HEPES pH 7.5); assay type: biochemical; conditions: read-out: Km for the substrate ATP; ATP 0 to 2 mM, 50 mM HEPES (pH 7.5), 0.2 mM luciferin, 10 mM MgSO4
[2] = biological target: T1, Luciola cruciata luciferase, wild type (Nipponoluciola cruciata, UniProt P13129); assay: as above; assay type: biochemical; conditions: read-out: Km for the substrate ATP; ATP 0 to 2 mM, 50 mM HEPES (pH 7.5), 0.2 mM luciferin, 10 mM MgSO4
T1 sequence (P13129 1-548): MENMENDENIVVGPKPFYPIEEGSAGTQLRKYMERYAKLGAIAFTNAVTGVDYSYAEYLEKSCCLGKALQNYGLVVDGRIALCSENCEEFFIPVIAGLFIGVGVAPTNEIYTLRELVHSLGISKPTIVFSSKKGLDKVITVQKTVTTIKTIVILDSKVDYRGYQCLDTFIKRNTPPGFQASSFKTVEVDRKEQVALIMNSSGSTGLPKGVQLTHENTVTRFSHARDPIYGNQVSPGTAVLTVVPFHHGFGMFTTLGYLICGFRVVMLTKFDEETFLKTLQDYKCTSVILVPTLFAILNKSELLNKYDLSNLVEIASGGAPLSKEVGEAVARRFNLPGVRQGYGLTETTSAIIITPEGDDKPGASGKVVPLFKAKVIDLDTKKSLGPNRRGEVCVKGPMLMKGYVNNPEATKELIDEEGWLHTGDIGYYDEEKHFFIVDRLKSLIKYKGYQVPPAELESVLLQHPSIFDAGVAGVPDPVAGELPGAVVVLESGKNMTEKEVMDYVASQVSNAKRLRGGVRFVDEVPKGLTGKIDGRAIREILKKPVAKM
Method: Then, this suspension was frozen in an ethanol/dry ice bath and then allowed to stand at a temperature of 25° C. until it was completely thawed. Further, it was centrifuged at 12,000 r.p.m. for 5 minutes whereby 20 ml crude enzyme was obtained as the supernatant. The crude enzyme solution thus obtained was purified according to the method described in Japanese Patent Laid-Open Publication 141592/1989, and the purified enzyme was designated GA1 luciferase. The Km value of this purified preparation for the substrate ATP was determined.

[3] = test system: GGA1 luciferase variant GGA1 V290I (290-position Val to Ile); assay: Catalytic efficiency (Vmax/Km) toward ATP, integrated light emission; assay type: biochemical, Luciola cruciata / Photinus pyralis; conditions: ATP 0 to 1.0×10^-3 mM, 50 mM Tricine buffer (pH 7.8), 2.0 mM luciferin, 10 mM MgSO4; light integrated 5 to 15 seconds
Method: (§1) The resulting transformant was inoculated on an LB-amp plate [1.0% (W/V) Bacto-trypton, 0.5% (W/V) yeast extract, 0.5% (W/V) NaCl, 1.5% (W/V) agar and 50 μ g/ml ampicillin] and cultured at 37° C. for 12 hours. The resulting colonies were transferred onto a nitrocellulose filter, and said filter was immersed in 0.1 M sodium citrate buffer (pH 5.0) containing 0.5 mM luciferin [Wood & DeLuca, Anal. Biochem., 161, 501-507 (1987)]. The emission of light from said colonies was monitored, and 3 strains with raised emission could be obtained. These strains were designated E. coli JM 109 (pGGA2-1), E. coli JM 109 (pGGA1-4) and E. coli JM 109 (pGGA2-4), respectively. The E. coli JM 109 (pGGA2-1), E. coli JM 109 (pGGA1-4) and E. coli JM 109 (pGGA2-4) thus obtained have been deposited respectively as FERM BP-6206, FERM BP-6205 and FERM BP-6204 with the National Institute of Bioscience and Human-Technology, Agency of Industrial Science and Technology. Plasmids were removed from these strains by alkali-SDS method. These plasmids were subjected to reaction with a dye primer tuck sequencing kit (Applied Biosystems) and analyzed by electrophoresis with an ABI 373A DNA sequencer (Applied Biosystems) to determine their mutation sites (Table 4).
(§2) From the E. coli JM 109 (pGGA2-1), E. coli JM 109 (pGGA1-4), E. coli JM 109 (pGGA2-4), their crude enzyme solutions were extracted by the method described in Example 1, and these mutant enzymes were purified in the method described in Japanese Patent Laid-Open Publication No. 141592/1989.The purified enzymes were designated GGA1 T219I luciferase, GGA1 V290I luciferase and GGA1 V239I luciferase, respectively. […] The emission of light from 5 seconds to 15 seconds after initiation of the reaction was integrated in Luminometer ML3000 (Dynatech) to determine catalytic efficiency (Vmax/Km). As shown in the table below, it was confirmed that as compared with the GGA1 luciferase, catalytic efficiency was improved by mutating each of the amino acids at the 219-, 290-, and 239-positions.

[4] = test system: GGA1 luciferase variant GGA1 T219I (219-position Thr to Ile); assay: as above; assay type: biochemical, Luciola cruciata / Photinus pyralis; conditions: ATP 0 to 1.0×10^-3 mM, 50 mM Tricine buffer (pH 7.8), 2.0 mM luciferin, 10 mM MgSO4; light integrated 5 to 15 seconds
Method: as §1, §2

[5] = test system: GGA1 luciferase variant GGA1 V239I (239-position Val to Ile); assay: as above; assay type: biochemical, Luciola cruciata / Photinus pyralis; conditions: ATP 0 to 1.0×10^-3 mM, 50 mM Tricine buffer (pH 7.8), 2.0 mM luciferin, 10 mM MgSO4; light integrated 5 to 15 seconds
Method: as §1, §2

[6] = test system: GA1 luciferase (fusion of Luciola cruciata luciferase N-terminal portion and Photinus pyralis luciferase C-terminal portion, SEQ ID NO:5); assay: Km for substrate ATP, peak light emission (HEPES pH 7.5); assay type: biochemical; conditions: read-out: Km for the substrate ATP; ATP 0 to 2 mM, 50 mM HEPES (pH 7.5), 0.2 mM luciferin, 10 mM MgSO4
Method: The Km value of this purified preparation for the substrate ATP was determined. The peak of the emission of light generated by use of the enzyme with the concentration of ATP varying from 0 to 2 mM in a solution containing 50 mM HEPES (pH 7.5), 0.2 mM luciferin and 10 mM MgSO4 was measured in Luminometer ML3000 (Dynatech) and the result is shown in the table 1 below.

[7] = biological target: Photinus pyralis luciferase (Photinus pyralis, UniProt P08659); assay: Km for substrate ATP, peak light emission (Tricine pH 7.8); assay type: biochemical; conditions: read-out: Km (affinity for ATP); ATP 0 to 2 mM, 50 mM Tricine buffer (pH 7.8), 0.2 mM luciferin, 10 mM MgSO4
Method: (§3) Further, its crude enzyme solution was prepared using the method described in Example 1 and the enzyme was purified in a method described in Japanese Patent Application Laid-Open Publication No. 141592/89. The purified enzyme was designated HHA1 luciferase.

[8] = test system: HHA1 luciferase (fusion of Luciola lateralis luciferase N-terminal, from pHLf7-217Leu, and Photinus pyralis luciferase C-terminal, SEQ ID NO:10); assay: as above; assay type: biochemical; conditions: read-out: Km (affinity for ATP); ATP 0 to 2 mM, 50 mM Tricine buffer (pH 7.8), 0.2 mM luciferin, 10 mM MgSO4
Method: 50 ng of the above EcoRV--EcoRV fragment from pT3/T7-LUC and 50 ng of the above EcoRV-NaeI fragment from pHLf7-217Leu were incubated at 15° C. for 16 hours in 20 μ l DNA ligase buffer in the presence of 300 U of T4 DNA ligase. The reaction mixture was used to transform E. coli JM 109 by the Hana-han method [DNA Cloning, 1, 109-135 (1985)], and ampicillin-resistant colonies were selected. A crude enzyme was prepared from the selected colonies in the method described in Example 1, and a plasmid was removed by the alkali-SDS method from those having luminescence activity, and the structure of the plasmid was confirmed. This plasmid was subjected to reaction with a dye primer tuck sequencing kit (Applied Biosystems) and analyzed by electrophoresis with an ABI 373A DNA sequencer (Applied Biosystems) to determine its nucleotide sequence (SEQ ID NO:9). The amino acid sequence of a polypeptide estimated to be translated from said nucleotide sequence is shown in SEQ ID NO:10. The plasmid thus obtained was designated pHHA1.
as §3

[9] = test system: GGA1 luciferase (fusion of thermostable Luciola cruciata luciferase N-terminal, Thr217Ile, and Photinus pyralis luciferase C-terminal, SEQ ID NO:7); assay type: biochemical; conditions: read-out: Km for the substrate ATP; purified GGA1 enzyme, Table 2
Method: E. coli JM109 (pGGA1) was inoculated on an LB-amp agar plate [1% (W/V) Bacto-trypton, 0.5% (W/V) yeast extract, 0.5% (W/V) NaCl, (50 a g/ml) ampicillin and 1.4% (W/V) agar] and cultured at 37° C. The colonies appearing 16 hours thereafter were cultured at 37° C. for 18 hours under shaking in 10 ml of an LB-amp medium [1% (W/V) Bacto-trypton, 0.5% (W/V) yeast extract, 0.5% (W/V) NaCl and (50 μ g/ml) ampicillin]. This culture, 10 ml, was inoculated into 2 L of the above LB-amp medium and cultured at 30 ° C. for 6 hours under shaking and then centrifuged at 8000 r.p.m. for 10 minutes to give 30 g wet microbial pellet. The recovered microorganism was suspended in 20 ml buffer consisting of 0.1 M KH2 PO4 (pH 7.8), 2 mM EDTA, 1 mM dithiothreitol and 0.2 mg/ml protamine sulfate, and 2 ml of 10 mg/ml lysozyme solution was further added thereto and the mixture was allowed to stand on ice for 15 minutes. Then, this suspension was frozen in an ethanol/dry ice bath and then allowed to stand at a temperature of 25° C. until it was completely thawed. Further, it was centrifuged at 12,000 r.p.m. for 5 minutes whereby 20 ml crude enzyme was obtained as the supernatant. […]
The Km value of this purified GGA1 enzyme for the substrate ATP was determined (Table 2).

[10] = substrate: Nc1ncnc2c1ncn2[C@@H]1O[C@H](COP(=O)(O)OP(=O)(O)OP(=O)(O)O)[C@@H](O)[C@H]1O; assay: cells, lysate or membranes named; assay type: biochemical, Luciola lateralis; conditions: other: ATP 0 to 2 mM, 50 mM Tricine buffer (pH 7.8), 0.2 mM luciferin, 10 mM MgSO4
Method: as §3

Photinus pyralis luciferase, sequence (P08659 whole entry): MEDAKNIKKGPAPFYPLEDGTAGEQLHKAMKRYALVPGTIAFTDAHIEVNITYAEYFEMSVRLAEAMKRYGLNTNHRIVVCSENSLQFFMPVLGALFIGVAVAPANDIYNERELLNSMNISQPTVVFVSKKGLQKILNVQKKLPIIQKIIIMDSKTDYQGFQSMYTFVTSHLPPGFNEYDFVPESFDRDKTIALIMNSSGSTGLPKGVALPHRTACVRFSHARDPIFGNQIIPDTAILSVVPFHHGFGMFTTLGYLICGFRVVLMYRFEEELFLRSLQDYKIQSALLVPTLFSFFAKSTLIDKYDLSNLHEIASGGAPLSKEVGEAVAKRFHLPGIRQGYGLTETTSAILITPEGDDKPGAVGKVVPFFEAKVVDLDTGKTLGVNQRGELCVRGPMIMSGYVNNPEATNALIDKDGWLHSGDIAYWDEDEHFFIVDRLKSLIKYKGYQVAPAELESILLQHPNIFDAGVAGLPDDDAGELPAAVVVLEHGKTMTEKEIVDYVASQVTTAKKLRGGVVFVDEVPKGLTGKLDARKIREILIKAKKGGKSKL
Photinus pyralis luciferase, wild type, sequence (P08659 whole entry): as above

Molecule	Km [1] [µM]	Km [2] [µM]	Vmax/Km toward the substrate ATP [3]	Vmax/Km toward the substrate ATP [4]	Vmax/Km toward the substrate ATP [5]	Km [6] [µM]	Km [7] [µM]	Km [8] [µM]	Km [9] [µM]	Km [10] [µM]
Nc1ncnc2c1ncn2[C@@H]1O[C@H](COP(=O)(O)OP(=O)(O)OP(=O)(O)O)[C@@H](O)[C@H]1O [ATP]	152	301	1.70 × 10^9 RLU/mg	2.16 × 10^9 RLU/mg	1.58 × 10^9 RLU/mg	26.5	161	123	104	
Luciola lateralis luciferase (Aquatica lateralis) (protein) MENMENDENIVYGPEPFYPIEEGSAGAQLRKYMDRYAKLGAIAFTNALTGVDYTYAEYLEKSCCLGEALKNYGLVVDGRIALCSENCEEFFIPVLAGLFIGVGVAPTNEIYTLRELVHSLGISKPTIVFSSKKGLDKVITVQKTVTAIKTIVILDSKVDYRGYQSMDNFIKKNTPQGFKGSSFKTVEVNRKEQVALIMNSSGSTGLPKGVQLTHENAVTRFSHARDPIYGNQVSPGTAILTVVPFHHGFGMFTTLGYLTCGFRIVMLTKFDEETFLKTLQDYKCSSVILVPTLFAILNRSELLDKYDLSNLVEIASGGAPLSKEIGEAVARRFNLPGVRQGYGLTETTSAIIITPEGDDKPGASGKVVPLFKAKVIDLDTKKTLGPNRRGEVCVKGPMLMKGYVDNPEATREIIDEEGWLHTGDIGYYDEEKHFFIVDRLKSLIKYKGYQVPPAELESVLLQHPNIFDAGVAGVPDPIAGELPGAVVVLEKGKSMTEKEVMDYVASQVSNAKRLRGGVRFVDEVPKGLTGKIDGKAIREILKKPVAKM										197
